How the values were obtained:
[1] = molecular target: T1, Voltage-gated inwardly rectifying potassium channel KCNH2 (Homo sapiens, UniProt Q12809); assay: Inhibition of human ERG by patch clamp technique
[2] = Bioavailability in Sprague-Dawley rat at 1 mg/kg, iv and 10 mg/kg, po; format: ADME, organism-based; settings: in vivo
[3] = molecular target: hERG (KCNH2) (Homo sapiens, UniProt Q12809); assay: Displacement of radiolabeled astemizole from human ERG at 10 uM; settings: probe radiolabeled astemizole
[4] = Volume of distribution at steady state in Sprague-Dawley rat at 1 mg/kg, iv and 10 mg/kg, po; format: ADME, organism-based; settings: in vivo, read-out: Vdss
[5] = Metabolic stability in rat liver microsomes assessed as compound remaining after 30 mins; format: ADME, Microsome; settings: read-out: Stability
[6] = molecular target: T2, Histamine H3 receptor (Rattus norvegicus, UniProt Q9QYN8); assay: Binding affinity to histamine H3 receptor in rat brain; format: tissue-based
[7] = molecular target: T1, Voltage-gated inwardly rectifying potassium channel KCNH2; assay: Displacement of radiolabeled astemizole from human ERG
[8] = Clearance in Sprague-Dawley rat at 1 mg/kg, iv and 10 mg/kg, po; format: ADME, organism-based; settings: in vivo
[9] = Drug level in Wistar rat brain at 10 mg/kg, po after 1 hr; format: ADME, organism-based; design: dose 10 mg/kg, route oral; settings: read-out: Drug uptake
[10] = molecular target: T3, Histamine H3 receptor (Homo sapiens, UniProt Q9Y5N1); assay: Displacement of [125I]-iodoproxyfan from human recombinant histamine H3 receptor expressed in human SK-N-MC cells after 1 hr by scintillation counting; format: cell-based
[11] = Metabolic stability in human liver microsomes assessed as compound remaining after 30 mins; format: ADME, Microsome; settings: read-out: Stability
[12] = molecular target: T2, Histamine H3 receptor; assay: Antagonist activity at rat histamine H3 receptor expressed in human SK-N-MC cells assessed as inhibition of forskolin-induced cAMP accumulation after 6 hrs; format: functional, cell-based; settings: read-out: pA2 (converted)
[13] = Half life in Sprague-Dawley rat at 1 mg/kg, iv and 10 mg/kg, po; format: ADME, organism-based; settings: in vivo
[14] = tested on: Rattus norvegicus; assay: Ex vivo receptor occupancy of histamine H3 receptor in Wistar rat brain at 10 mg/kg, po after 1 hr by autoradiography; format: functional
[15] = Plasma concentration in Wistar rat at 10 mg/kg, po after 1 hr; format: ADME, organism-based; design: dose 10 mg/kg, route oral; settings: read-out: Drug uptake
[16] = molecular target: T3, Histamine H3 receptor; assay: Antagonist activity at human histamine H3 receptor expressed in human SK-N-MC cells assessed as inhibition of forskolin-induced cAMP accumulation after 6 hrs; format: functional, cell-based; settings: read-out: pA2 (converted)

T3 sequence (Q9Y5N1 whole entry): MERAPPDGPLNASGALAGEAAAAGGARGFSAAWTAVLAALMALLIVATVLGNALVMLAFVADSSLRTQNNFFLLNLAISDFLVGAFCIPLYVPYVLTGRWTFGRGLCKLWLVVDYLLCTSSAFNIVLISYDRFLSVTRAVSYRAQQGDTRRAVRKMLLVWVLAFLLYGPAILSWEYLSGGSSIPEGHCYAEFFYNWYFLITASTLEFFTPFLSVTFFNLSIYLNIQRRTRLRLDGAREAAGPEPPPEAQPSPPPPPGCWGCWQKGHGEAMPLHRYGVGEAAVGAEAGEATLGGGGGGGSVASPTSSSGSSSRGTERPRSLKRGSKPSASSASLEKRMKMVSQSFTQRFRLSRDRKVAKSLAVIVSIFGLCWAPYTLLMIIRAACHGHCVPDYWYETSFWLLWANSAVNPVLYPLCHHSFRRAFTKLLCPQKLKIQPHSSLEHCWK
T1 sequence (Q12809 whole entry): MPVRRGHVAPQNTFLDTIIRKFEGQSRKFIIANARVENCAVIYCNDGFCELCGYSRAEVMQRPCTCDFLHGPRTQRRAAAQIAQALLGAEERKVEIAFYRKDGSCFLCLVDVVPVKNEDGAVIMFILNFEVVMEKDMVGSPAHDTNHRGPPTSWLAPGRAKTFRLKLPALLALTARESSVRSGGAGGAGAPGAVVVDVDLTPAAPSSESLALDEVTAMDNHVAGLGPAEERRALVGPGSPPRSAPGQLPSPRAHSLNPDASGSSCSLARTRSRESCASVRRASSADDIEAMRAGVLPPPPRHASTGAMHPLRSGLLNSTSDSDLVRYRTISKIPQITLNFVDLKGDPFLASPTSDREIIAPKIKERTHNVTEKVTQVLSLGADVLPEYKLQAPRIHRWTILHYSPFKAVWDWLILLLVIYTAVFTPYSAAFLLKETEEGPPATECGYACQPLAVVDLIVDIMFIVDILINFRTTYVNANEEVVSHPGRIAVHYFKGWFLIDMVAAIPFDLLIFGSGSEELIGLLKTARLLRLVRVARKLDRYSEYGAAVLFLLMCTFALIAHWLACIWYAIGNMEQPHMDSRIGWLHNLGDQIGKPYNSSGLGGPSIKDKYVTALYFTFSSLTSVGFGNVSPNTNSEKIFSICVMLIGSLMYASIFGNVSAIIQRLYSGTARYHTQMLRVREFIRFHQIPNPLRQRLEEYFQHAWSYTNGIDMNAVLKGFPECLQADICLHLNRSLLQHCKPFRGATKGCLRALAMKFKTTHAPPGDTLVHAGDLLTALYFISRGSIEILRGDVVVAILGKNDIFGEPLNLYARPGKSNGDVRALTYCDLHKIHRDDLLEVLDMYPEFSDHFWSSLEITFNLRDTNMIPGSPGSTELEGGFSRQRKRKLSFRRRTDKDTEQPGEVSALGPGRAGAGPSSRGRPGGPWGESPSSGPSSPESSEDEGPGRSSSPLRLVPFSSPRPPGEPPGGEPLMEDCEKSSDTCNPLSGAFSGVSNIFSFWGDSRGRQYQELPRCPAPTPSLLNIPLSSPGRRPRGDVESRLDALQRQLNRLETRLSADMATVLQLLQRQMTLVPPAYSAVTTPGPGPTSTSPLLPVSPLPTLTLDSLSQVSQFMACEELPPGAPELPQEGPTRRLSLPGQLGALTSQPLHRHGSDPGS
T2 sequence (Q9QYN8 whole entry): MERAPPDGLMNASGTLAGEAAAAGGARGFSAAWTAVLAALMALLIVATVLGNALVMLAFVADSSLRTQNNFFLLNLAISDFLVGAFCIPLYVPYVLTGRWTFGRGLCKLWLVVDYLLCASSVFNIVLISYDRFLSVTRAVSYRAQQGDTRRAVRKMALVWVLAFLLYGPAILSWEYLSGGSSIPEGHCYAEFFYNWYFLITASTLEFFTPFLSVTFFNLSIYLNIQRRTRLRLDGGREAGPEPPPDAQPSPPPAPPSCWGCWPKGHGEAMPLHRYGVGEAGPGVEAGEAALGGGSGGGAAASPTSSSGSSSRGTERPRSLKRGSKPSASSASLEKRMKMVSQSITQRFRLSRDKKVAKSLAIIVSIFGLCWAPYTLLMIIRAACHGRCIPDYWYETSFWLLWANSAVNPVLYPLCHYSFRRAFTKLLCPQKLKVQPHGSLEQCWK
Chain of hERG (KCNH2) (Q12809 whole entry): as the sequence (Q12809 whole entry) above

O=C(c1ccc(Oc2ccc(Cl)cc2)nc1)N1CCCN(C2CCC2)CC1
IC50 [1]: 1400 nM
bioavailability [2]: 62%
inhibition at 10 µM [3]: 23%
Vd [4]: 3 L/kg
remaining at 0.5 h [5]: 63%
Ki [6]: 23 nM
IC50 [7]: > 10 µM
clearance [8]: 36 mL/min/kg
concentration at 1 h [9]: 2620 nM
Ki [10]: 59 nM
remaining at 0.5 h [11]: 95%
Kb [12]: 3.98 nM
half-life [13]: 78 min
Activity [14]: 95%
concentration at 1 h [15]: 4470 nM

O=C(c1cc(Oc2ccccc2)ccn1)N1CCCN(C2CCC2)CC1
Ki [10]: 41 nM

O=C(c1ccc(Oc2cccc(Cl)c2)cn1)N1CCCN(C2CCC2)CC1
Ki [10]: 4.7 nM

CC(C)N1CCN(C(=O)c2ccc(Oc3ccc(Cl)cc3)nc2)CC1
Ki [10]: 73 nM

O=C(c1ccc(Oc2ccc(Cl)c(Cl)c2)nc1)N1CCCN(C2CCC2)CC1
remaining at 0.5 h [5]: 4%
concentration at 1 h [9]: 4790 nM
Ki [10]: 7.6 nM
remaining at 0.5 h [11]: 30%
Activity [14]: 100%
concentration at 1 h [15]: 1520 nM

O=C(c1ccc(Oc2ccccc2)nc1)N1CCCN(C2CC2)CC1
Ki [10]: 10 nM

O=C(c1cccc(Oc2ccc(Cl)c(Cl)c2)n1)N1CCCN(C2CC2)CC1
Ki [10]: 1040 nM

O=C(c1ccc(Oc2ccc(F)cc2)nc1)N1CCCN(C2CC2)CC1
Kb [16]: 1.58 nM
Ki [10]: 25 nM

O=C(c1ccc(Oc2ccc(F)cc2)nc1)N1CCN(C2CC2)CC1
Ki [10]: 430 nM

O=C(c1ccc(Oc2ccccc2Cl)nc1)N1CCN(C2CCCC2)CC1
Ki [10]: 40 nM

CSc1ccc(Oc2ccc(C(=O)N3CCN(C(C)C)CC3)cn2)cc1
Ki [10]: 230 nM

O=C(c1cncc(Oc2ccccc2)c1)N1CCCN(C2CCC2)CC1
Ki [10]: 11 nM

CC(C)N1CCN(C(=O)c2ccc(Oc3ccccc3)nc2)CC1
Ki [10]: 260 nM

O=C(c1ccc(Oc2cccc(F)c2)nc1)N1CCCN(C2CC2)CC1
Ki [10]: 16 nM

O=C(c1ccc(Sc2ccc(F)cc2)nc1)N1CCCN(C2CCC2)CC1
Ki [10]: 29 nM

CC(C)N1CCN(C(=O)c2ccc(Oc3ccc(F)cc3)nc2)CC1
Ki [10]: 79 nM

O=C(c1ccc(Oc2ccccc2Cl)nc1)N1CCCN(C2CCC2)CC1
Ki [10]: 17 nM

CC(C)N1CCN(C(=O)c2ccc(Oc3cccc(C#N)c3)nc2)CC1
Ki [10]: 110 nM

O=C(c1ccc(Oc2cccc(Cl)c2)nc1)N1CCCN(C2CCC2)CC1
IC50 [1]: 1600 nM
bioavailability [2]: 19%
inhibition at 10 µM [3]: 28%
Kb [16]: 0.871 nM
Vd [4]: 5 L/kg
remaining at 0.5 h [5]: 58%
IC50 [7]: > 10 µM
clearance [8]: 104 mL/min/kg
concentration at 1 h [9]: 1720 nM
remaining at 0.5 h [11]: 98%
Kb [12]: 5.01 nM
half-life [13]: 60 min
Activity [14]: 96%
concentration at 1 h [15]: 630 nM

O=C(c1ccc(Oc2ccccc2F)cn1)N1CCCN(C2CCC2)CC1
Kb [16]: 0.537 nM
Ki [10]: 4.3 nM

CC(C)N1CCCN(C(=O)c2ccc(Oc3ccc(Cl)c(Cl)c3)nc2)CC1
Ki [10]: 18 nM

N#Cc1cccc(Oc2ccc(C(=O)N3CCCN(C4CC4)CC3)cn2)c1
Ki [10]: 12 nM

O=C(c1ccc(Oc2ccc(Cl)cc2)nc1)N1CCCN(C2CC2)CC1
Ki [10]: 13 nM

Reference: ChEMBL document CHEMBL1177792, “Pre-clinical characterization of aryloxypyridine amides as histamine H3 receptor antagonists: identification of candidates for clinical development” (Bioorg Med Chem Lett, 2010)
